# Measurements from ChEMBL document CHEMBL4342426, “Structure-activity relationship of 4-azaindole-2-piperidine derivatives as agents against Trypanosoma cruzi” (Bioorg Med Chem Lett, 2020).
# What was measured:
# [1] = cells; details: Homo sapiens, MRC-5 SV2, 72 h
# Description: (§1) Cytotoxicity against human MRC5 SV2 cells assessed as reduction in cell viability incubated for 3 days by fluorimetry
# [2] = physchem; details: buffer, pH 7.4
# Description: Lipophilicity, logD of compound at pH 7.4 by HPLC analysis
# [3] = in vitro; details: human, MRC5 SV2 cells
# Description: Selectivity index, ratio of IC50 for human MRC5 SV2 cells to IC50 for Trypanosoma brucei rhodesiense STIB900 trypomastigotes
# [4] = in vitro; details: human, liver microsomes
# Description: Metabolic stability in human liver microsomes assessed as intrinsic clearance at 0.5 uM incubated for 30 mins by LC-MS/MS analysis
# [5] = in vitro; details: PAMPA
# Description: Effective permeability of compound by PAMPA assay
# [6] = test system: Macrophage; experiment: cells; details: Mus musculus, 72 h
# Description: (§2) Cytotoxicity against mouse peritoneal Macrophage cells assessed as reduction in cell viability incubated for 3 days by fluorimetry
# [7] = in vitro; details: human, MRC5 SV2 cells; remark: listed apart in the source
# Description: as §1
# [8] = test system: Trypanosoma brucei rhodesiense; experiment: microbe, parasite or virus in culture; details: STIB900, 72 h
# Description: Antiprotozoal activity against Trypanosoma brucei rhodesiense STIB900 trypomastigotes incubated for 72 hrs by resazurin dye based fluorimetric analysis
# [9] = test system: Trypanosoma brucei; experiment: microbe, parasite or virus in culture; details: Squib 427, 72 h
# Description: Antitrypanosomal activity against Trypanosoma brucei Squib 427 assessed as reduction in parasite growth incubated for 72 hrs by resazurin dye based fluorimetric analysis
# [10] = in vitro; details: mouse, liver microsomes
# Description: Metabolic stability in mouse liver microsomes assessed as intrinsic clearance at 0.5 uM incubated for 30 mins by LC-MS/MS analysis
# [11] = in vitro; details: mouse, peritoneal macrophages
# Description: as §2
# [12] = test system: Leishmania infantum; experiment: microbe, parasite or virus in culture; details: for IC50: MHOM/MA(BE)/67/ITMAP263, 120 h; for IC90: MHOM/MA(BE)/67/ITMAP263, in Mus musculus, 120 h
# Description: Antileishmanial activity against amastigote stage of Leishmania infantum MHOM/MA(BE)/67/ITMAP263 infected in mouse peritoneal macrophage assessed as parasite growth inhibition incubated for 5 days by Giemsa staining based assay
# [13] = test system: Trypanosoma cruzi; experiment: microbe, parasite or virus in culture; details: Tulahuen CL2, MRC-5 SV2, 168 h
# Description: Antitrypanosomal activity against Trypanosoma cruzi Tulahuen CL2 amastigotes infected in human MRC5 SV2 cells incubated for 7 days by chlorophenol red beta-D-galactopyranoside substrate based spectrophotometric assay
# [14] = in vitro; details: mouse, liver microsomes; remark: listed apart in the source
# Description: Metabolic stability in mouse liver microsomes assessed as fraction unbound at 0.5 uM incubated for 30 mins by LC-MS/MS analysis
# [15] = in vitro; details: human, MRC5 SV2 cells; remark: listed apart in the source
# Description: Selectivity index, ratio of IC50 for human MRC5 SV2 cells to IC50 for Trypanosoma cruzi Tulahuen CL2 amastigotes infected in human MRC5 SV2 cells
smiles,measurement,setting,value
O=C(c1ccc(F)cc1)N1CCCC(c2cc3nc(C(F)(F)F)ccc3[nH]2)C1 (stereo not drawn),IC50,[1],64 µM
same,logD,[2],3.88
same,selectivity ratio,[3],2.19
same,"CLint scaled at 0.5 h, 0.5 µM",[4],118 mL/min/kg
same,"microsomal CLint at 0.5 h, 0.5 µM",[4],77.6 µL/min/mg
same,Papp,[5],12.2 ×10⁻⁶ cm/s
same,IC50,[6],64 µM
same,IC90 at 72 h,[7],64 µM
same,IC50,[8],28.7 µM
same,IC90,[8],57.5 µM
same,IC50,[9],64 µM
same,IC90,[9],64 µM
same,"CLint scaled at 0.5 h, 0.5 µM",[10],1110 mL/min/kg
same,"microsomal CLint at 0.5 h, 0.5 µM",[10],247 µL/min/mg
same,IC90 at 72 h,[11],64 µM
same,IC50,[12],64 µM
same,IC90,[12],64 µM
same,IC50,[13],64 µM
same,IC90,[13],64 µM
same,"fraction unbound at 0.5 h, 0.5 µM",[14],0.713
CC(C)c1cc(C(=O)N2CCCC(O)(c3cc4ncccc4n3S(=O)(=O)c3ccccc3)C2)on1 (stereo not drawn),IC50,[1],64 µM
same,selectivity ratio,[3],1.8
same,IC50,[6],64 µM
same,IC90 at 72 h,[7],64 µM
same,selectivity ratio,[15],1.26
same,IC50,[8],35.4 µM
same,IC90,[8],64 µM
same,IC50,[9],51.1 µM
same,IC90,[9],64 µM
same,IC90 at 72 h,[11],64 µM
same,IC50,[12],64 µM
same,IC90,[12],64 µM
same,IC50,[13],51.3 µM
same,IC90,[13],64 µM
O=C(c1ccccc1)N1CC=C(c2cc3ncccc3[nH]2)CC1,IC50,[1],64 µM
same,logD,[2],2.89
same,selectivity ratio,[3],2.1
same,"CLint scaled at 0.5 h, 0.5 µM",[4],< 33.3 mL/min/kg
same,"microsomal CLint at 0.5 h, 0.5 µM",[4],< 23 µL/min/mg
same,Papp,[5],1.65 ×10⁻⁶ cm/s
same,IC50,[6],64 µM
same,IC90 at 72 h,[7],64 µM
same,selectivity ratio,[15],26.8
same,IC50,[8],30.3 µM
same,IC90,[8],64 µM
same,IC50,[9],64 µM
same,IC90,[9],64 µM
same,"CLint scaled at 0.5 h, 0.5 µM",[10],1310 mL/min/kg
same,"microsomal CLint at 0.5 h, 0.5 µM",[10],305 µL/min/mg
same,IC90 at 72 h,[11],64 µM
same,IC50,[12],24.7 µM
same,IC90,[12],46.1 µM
same,IC50,[13],2.39 µM
same,IC90,[13],12.3 µM
O=C(c1ccccc1)N1CCCC(c2cc3ncccc3[nH]2)C1 (stereo not drawn),IC50,[1],64 µM
same,logD,[2],2.68
same,selectivity ratio,[3],1.7
same,"CLint scaled at 0.5 h, 0.5 µM",[4],38.8 mL/min/kg
same,"microsomal CLint at 0.5 h, 0.5 µM",[4],24.7 µL/min/mg
same,Papp,[5],2.88 ×10⁻⁶ cm/s
same,IC50,[6],64 µM
same,IC90 at 72 h,[7],64 µM
same,selectivity ratio,[15],7.13 to 7.5
same,IC50,[8],38.3 to 64 µM
same,IC90,[8],64 µM
same,IC50,[9],64 µM
same,IC90,[9],64 µM
same,"CLint scaled at 0.5 h, 0.5 µM",[10],2360 mL/min/kg
same,"microsomal CLint at 0.5 h, 0.5 µM",[10],508 µL/min/mg
same,IC90 at 72 h,[11],64 µM
same,IC50,[12],64 µM
same,IC90,[12],64 µM
same,IC50,[13],8.5 to 9.02 µM
same,IC90,[13],31.1 to 45.3 µM
O=C(Nc1ccc(-c2cc3ncccc3[nH]2)cc1)c1ccccc1,IC50,[1],64 µM
same,logD,[2],3.86
same,selectivity ratio,[3],1.45
same,"CLint scaled at 0.5 h, 0.5 µM",[4],≥ 105 mL/min/kg
same,"microsomal CLint at 0.5 h, 0.5 µM",[4],97.5 µL/min/mg
same,Papp,[5],0.545 ×10⁻⁶ cm/s
same,IC50,[6],45.3 µM
same,IC90 at 72 h,[7],64 µM
same,selectivity ratio,[15],2.54
same,IC50,[8],44.6 µM
same,IC90,[8],64 µM
same,IC50,[9],64 µM
same,IC90,[9],64 µM
same,"CLint scaled at 0.5 h, 0.5 µM",[10],≥ 597 mL/min/kg
same,"microsomal CLint at 0.5 h, 0.5 µM",[10],187 µL/min/mg
same,IC90 at 72 h,[11],59.7 µM
same,IC50,[12],45.6 µM
same,IC90,[12],60.5 µM
same,IC50,[13],25.2 µM
same,IC90,[13],64 µM
O=C(Nc1cccc(-c2cc3ncccc3[nH]2)c1)c1ccccc1,IC50,[1],64 µM
same,logD,[2],3.88
same,selectivity ratio,[3],13.9
same,"CLint scaled at 0.5 h, 0.5 µM",[4],≥ 392 mL/min/kg
same,"microsomal CLint at 0.5 h, 0.5 µM",[4],363 µL/min/mg
same,Papp,[5],0.606 ×10⁻⁶ cm/s
same,IC50,[6],64 µM
same,IC90 at 72 h,[7],64 µM
same,selectivity ratio,[15],30.7
same,IC50,[8],4.6 µM
same,IC90,[8],23.7 µM
same,IC50,[9],64 µM
same,IC90,[9],64 µM
same,"CLint scaled at 0.5 h, 0.5 µM",[10],≥ 1670 mL/min/kg
same,"microsomal CLint at 0.5 h, 0.5 µM",[10],522 µL/min/mg
same,IC90 at 72 h,[11],64 µM
same,IC50,[12],52.5 µM
same,IC90,[12],64 µM
same,IC50,[13],2.08 µM
same,IC90,[13],3.8 µM
O=C(c1ccc(F)cc1)N1CCCC(c2cc3ncccc3[nH]2)C1 (stereo not drawn),IC50,[1],64 µM
same,logD,[2],2.86
same,selectivity ratio,[3],1.98
same,"CLint scaled at 0.5 h, 0.5 µM",[4],41.3 mL/min/kg
same,"microsomal CLint at 0.5 h, 0.5 µM",[4],38.3 µL/min/mg
same,Papp,[5],0.625 ×10⁻⁶ cm/s
same,IC50,[6],64 µM
same,IC90 at 72 h,[7],64 µM
same,selectivity ratio,[15],6.38
same,IC50,[8],32.8 µM
same,IC90,[8],60.7 µM
same,IC50,[9],64 µM
same,IC90,[9],64 µM
same,"CLint scaled at 0.5 h, 0.5 µM",[10],1080 mL/min/kg
same,"microsomal CLint at 0.5 h, 0.5 µM",[10],337 µL/min/mg
same,IC90 at 72 h,[11],64 µM
same,IC50,[12],64 µM
same,IC90,[12],64 µM
same,IC50,[13],10 µM
same,IC90,[13],44.1 µM
CCN(CCc1nc2ncc(Cl)cc2[nH]1)C(=O)c1ccc(F)cc1,IC50,[1],64 µM
same,logD,[2],2.79
same,selectivity ratio,[3],2.1
same,"CLint scaled at 0.5 h, 0.5 µM",[4],< 31.7 mL/min/kg
same,"microsomal CLint at 0.5 h, 0.5 µM",[4],< 23 µL/min/mg
same,Papp,[5],11.4 ×10⁻⁶ cm/s
same,IC50,[6],64 µM
same,IC90 at 72 h,[7],64 µM
same,IC50,[8],30.3 µM
same,IC90,[8],57.6 µM
same,IC50,[9],64 µM
same,IC90,[9],64 µM
same,"CLint scaled at 0.5 h, 0.5 µM",[10],439 mL/min/kg
same,"microsomal CLint at 0.5 h, 0.5 µM",[10],108 µL/min/mg
same,IC90 at 72 h,[11],64 µM
same,IC50,[12],64 µM
same,IC90,[12],64 µM
same,IC50,[13],64 µM
same,IC90,[13],64 µM
O=C(c1ccc(F)cc1)N1CCCC(c2cc3nc(Cl)ccc3[nH]2)C1 (stereo not drawn),IC50,[1],64 µM
same,logD,[2],3.52
same,selectivity ratio,[3],26
same,"CLint scaled at 0.5 h, 0.5 µM",[4],125 mL/min/kg
same,"microsomal CLint at 0.5 h, 0.5 µM",[4],78.4 µL/min/mg
same,Papp,[5],15 ×10⁻⁶ cm/s
same,IC50,[6],64 µM
same,IC90 at 72 h,[7],64 µM
same,IC50,[8],2.46 µM
same,IC90,[8],15.1 µM
same,IC50,[9],64 µM
same,IC90,[9],64 µM
same,"CLint scaled at 0.5 h, 0.5 µM",[10],1390 mL/min/kg
same,"microsomal CLint at 0.5 h, 0.5 µM",[10],294 µL/min/mg
same,IC90 at 72 h,[11],64 µM
same,IC50,[12],64 µM
same,IC90,[12],64 µM
same,IC50,[13],64 µM
same,IC90,[13],64 µM
same,"fraction unbound at 0.5 h, 0.5 µM",[14],0.676
COc1cccc2[nH]c(C(=O)N3CCCC(c4cc5ncccc5[nH]4)C3)cc12 (stereo not drawn),IC50,[1],32 µM
same,selectivity ratio,[3],5.44
same,IC50,[6],32 µM
same,IC90 at 72 h,[7],32 µM
same,selectivity ratio,[15],29.4
same,IC50,[8],5.88 µM
same,IC90,[8],23.4 µM
same,IC50,[9],32 µM
same,IC90,[9],32 µM
same,IC90 at 72 h,[11],32 µM
same,IC50,[12],24.7 µM
same,IC90,[12],32 µM
same,IC50,[13],1.09 µM
same,IC90,[13],5.34 µM
COc1ccc(Cl)cc1C(=O)N1CCCC(c2cc3ncccc3[nH]2)C1 (stereo not drawn),IC50,[1],32 µM
same,selectivity ratio,[3],1.79
same,"CLint scaled at 0.5 h, 0.5 µM",[4],207 mL/min/kg
same,IC50,[6],32 µM
same,IC90 at 72 h,[7],32 µM
same,selectivity ratio,[15],8.54
same,IC50,[8],17.8 µM
same,IC90,[8],32 µM
same,IC50,[9],32 µM
same,IC90,[9],32 µM
same,"CLint scaled at 0.5 h, 0.5 µM",[10],10300 mL/min/kg
same,IC90 at 72 h,[11],32 µM
same,IC50,[12],28.5 µM
same,IC90,[12],32 µM
same,IC50,[13],3.75 µM
same,IC90,[13],7.59 µM
